Experimental data: patent publication US9751919B2, “Antimicrobial compositions comprising a hyaluronic acid binding peptide and a β-lactam antibiotic” (priority 2012, dated 2017)
Where “and” joins values, the source holds several entries; their conditions need not be identical. Identical values can stand only once. Marks after values point to notes of the source that are not given here.

Experiments:
Test in all cases: Checkerboard assay (FIC index)
MSSA = type: cell-based, Staphylococcus aureus; conditions: antibiotic combined with PEP35
Protocol: (§1) Checkerboard assays were carried out as described by Bonapace et al.
(§2) Diagnostic Microbiology and Infectious Diseases 2002; 44:363-366. In brief, checkerboard assays were performed in 96 well microtitre trays using an 8-by-8 well configuration. […] 96-well custom designed microtitre plates contained 100 ul/well of cation adjusted Mueller-Hinton broth (eg. for Enterobacteriaceae) with or without lysed horse blood (2-5% V/V) [eg. for S. pneumoniae] and were inoculated to achieve a final concentration of approximately 5×10^5 CFU/ml and incubated in ambient air for 24 hours prior to reading. Colony counts were performed periodically to confirm inocula. Quality control was performed every two weeks using a variety of ATCC QC organisms including; S. pneumoniae 49619, S. aureus 29213, E. faecalis 29212, E. coli 25922 and P. aeruginosa 27853. […] All peptides were assessed for synergy with β-lactams and vancomycin. For all antimicrobials as well as the peptides, CLSI criteria were used.
(§3) The fractional inhibitory concentration index (FIC index) was used to interpret synergy, antagonism or additivity/indifference. FIC index=FIC of drug A+FIC of drug B where:
(§4) The FIC of drug A and drug B was calculated as follows, FIC drug A=MIC of drug A in combination/MIC of drug A alone and FIC of drug B=MIC of drug B in combination/MIC of drug B alone. Synergy was defined as FIC index ≦0.5, additivity/indifference defined as a FIC between 0.5 and 4 and antagonism defined as an FIC index >4.
(§5) The checkerboard assays were carried out as described by Eliopoulos and Moellering (Chapter 9) in Antibiotic in Laboratory Medicine, Lorian Ed. 1996 as well as Bonapace et al. Diagnostic Microbiology and Infectious Diseases 2002; 44:363-366 and Bonapace et al. Diagnostic Microbiology and Infectious Diseases 2000; 38:43-50. In brief, checkerboard assays were performed in 96 well microtitre trays using an 8-by-8 well configuration. […] 96-well custom designed microtitre plates contained 100 ul/well of cation adjusted Mueller-Hinton broth (eg. for Enterobacteriaceae) with or without lysed horse blood (2-5% V/V) [eg. for S. pneumoniae] and were inoculated to achieve a final concentration of approximately 5×10^5 CFU/ml and incubated in ambient air for 24 hours prior to reading. Colony counts were performed periodically to confirm inocula. Quality control was performed every two weeks using a variety of ATCC QC organisms including; S. pneumoniae 49619, S. aureus 29213, E. faecalis 29212, E. coli 25922 and P. aeruginosa 27853. For all antimicrobials as well as PEP35, CLSI criteria was used.
(§6) The FIC of drug A and drug B is calculated as follows, FIC drug A=MIC of drug A in combination/MIC of drug A alone and FIC of drug B=MIC of drug B in combination/MIC of drug B alone. Synergy is defined as FIC index ≦0.5, additivity/indifference FIC >0.5-4 and antagonism FIC index >4.
(§7) Antimicrobials used included PEP35, cefazolin, ceftriaxone, vancomycin, linezolid, tigecycline and daptomycin versus Gram-positive cocci and PEP35, gentamicin, levofloxacin, piperacillin/tazobactam, meropenem and colistin (Polymyxin E) versus Gram-negative bacilli. These agents were obtained as laboratory grade powders from their respective manufacturers. Stock solutions were prepared and dilutions made as described by the Clinical Laboratory Standards Institute (2005 CLSI).
(§8) Organisms included Gram-positive cocci (2 strains of each): Methicillin-susceptible Staphylococcus aureus (MSSA), community-associated (CA) and healthcare-associated (HA) methicillin-resistant Staphylococcus aureus (MRSA), vancomycin-intermediate Staphylococcus aureus (VISA), vancomycin-resistant Staphylococcus aureus (VRSA), methicillin-resistant Staphylococcus epidermidis (MRSE), Streptococcus pyogenes, Streptococcus agalactiae, Streptococcus pneumoniae, Enterococcus faecalis, Enterococcus faecium and vancomycin-resistant enterococcus (VRE). […]

VISA = type: cell-based, Staphylococcus aureus; conditions: antibiotic combined with PEP35
Protocol: as §1, §2, §3, §4, §5, §6, §7, §8

VRSA = type: cell-based, Staphylococcus aureus; conditions: antibiotic combined with PEP35 (added together)
Protocol: as §1, §2, §3, §4
(§9) The fractional inhibitory concentration index (FIC index) was used to interpret synergy, antagonism or additivity/indifference. FIC index=FIC of drug A+FIC of drug B where the FIC of drug A and drug B was calculated as follows, FIC drug A=MIC of drug A in combination/MIC of drug A alone and FIC of drug B=MIC of drug B in combination/MIC of drug B alone. Synergy was defined as FIC index ≦0.5, additivity/indifference defined as an FIC of between 0.5 and 4 and antagonism defined as an FIC index >4.
as §5, with “27853.” for “27853. For all antimicrobials as well as PEP35, CLSI criteria was used.”
as §6
(§10) These agents were obtained as laboratory grade powders from their respective manufacturers. Stock solutions were prepared and dilutions made as described by the Clinical Laboratory Standards Institute (2005 CLSI).

HA-MRSA = type: cell-based, Staphylococcus aureus; conditions: antibiotic combined with PEP35 (added together)
Protocol: as §1, §2, §3, §4, §9
as §5, with “27853.” for “27853. For all antimicrobials as well as PEP35, CLSI criteria was used.”
as §6, §10

CA-MRSA = type: cell-based, Staphylococcus aureus; conditions: antibiotic combined with PEP35 (added together)
Protocol: as §1, §2, §3, §4, §9
as §5, with “27853.” for “27853. For all antimicrobials as well as PEP35, CLSI criteria was used.”
as §6, §10

E. coli = type: cell-based, Escherichia coli; conditions: for synergy (in words): with β-lactams, against E. coli
Protocol: as §1, §2, §3, §4, §5, §6, §7, §8

| Compound | Avg ΣFIC (range) (MSSA; MSSA 79333) | Avg ΣFIC (range) (MSSA; MSSA 83424) | Avg ΣFIC (range) (VISA; VISA 92) | Avg ΣFIC (range) (VISA; VISA 95) | Avg ΣFIC (range) (VISA; VISA 96) | Avg ΣFIC (range) (VRSA; VRSA 105) | Avg ΣFIC (range) (VRSA; VRSA 106) | Avg ΣFIC (range) (HA-MRSA; HA-MRSA 70798 (USA100/800)) | Avg ΣFIC (range) (HA-MRSA; HA-MRSA 77090 (USA100/800)) | Avg ΣFIC (range) (CA-MRSA; CA-MRSA 69615 (USA400)) | Avg ΣFIC (range) (CA-MRSA; CA-MRSA 70857 (USA400)) | synergy (in words) (E. coli) | Avg ΣFIC (range) (E. coli; antibiotic combined with PEP35, E. coli 69716) | Avg ΣFIC (range) (E. coli; antibiotic combined with PEP35, E. coli 70752) | Avg ΣFIC (range) (E. coli; β-lactam combined with HybPEP35-1, E. coli 69716) | Avg ΣFIC (range) (E. coli; β-lactam combined with HybPEP35-1, E. coli 70752) | Avg ΣFIC (range) (E. coli; β-lactam combined with PEP-52, E. coli 69716) | Avg ΣFIC (range) (E. coli; β-lactam combined with PEP-52, E. coli 70752) | Avg ΣFIC (range) (E. coli; β-lactam combined with Scrambled PEP35, E. coli 69716) | Avg ΣFIC (range) (E. coli; β-lactam combined with Scrambled PEP35, E. coli 70752) |
| --- | --- | --- | --- | --- | --- | --- | --- | --- | --- | --- | --- | --- | --- | --- | --- | --- | --- | --- | --- | --- |
| CCCCCCCCCC(=O)N[C@@H](Cc1c[nH]c2ccccc12)C(=O)N[C@H](CC(N)=O)C(=O)N[C@@H](CC(=O)O)C(=O)N[C@@H]1C(=O)NCC(=O)N[C@@H](CCCN)C(=O)N[C@@H](CC(=O)O)C(=O)N[C@H](C)C(=O)N[C@@H](CC(=O)O)C(=O)NCC(=O)N[C@H](CO)C(=O)N[C@@H]([C@H](C)CC(=O)O)C(=O)N[C@@H](CC(=O)c2ccccc2N)C(=O)O[C@@H]1C [Daptomycin, daptomycin] | 1.19 (1.03-1.5) | 1.58 (1.015-2.5) | 1.54 (1.015-2.5) | 1.23 (1.06-1.5) | 1.21 (1.03-1.5) | 0.52 (0.37-0.62) | 0.91 (0.56-1.25) | 0.99 (0.53-1.5) | 1.27 (1.015-2.03) | 1.18 (1.015-1.5) | 1.18 (1.015-1.5) |  |  |  |  |  |  |  |  |  |
| CC(=O)NC[C@H]1CN(c2ccc(N3CCOCC3)c(F)c2)C(=O)O1 [Linezolid, linezolid] | 1.05 (0.75-1.25) | 0.74 (0.515-1.06) | 0.99 (0.75-1.12) | 0.98 (0.62-1.25) | 0.77 (0.56-1.06) | 0.80 (0.5-1.06) | 0.83 (0.5-1.12) | 0.70 (0.5-1.06) | 0.74 (0.53-1.06) | 0.80 (0.515-1.12) | 0.89 (0.5-1.12) |  |  |  |  |  |  |  |  |  |
| CN(C)c1cc(NC(=O)CNC(C)(C)C)c(O)c2c1C[C@H]1C[C@H]3[C@H](N(C)C)C(O)=C(C(N)=O)C(=O)[C@@]3(O)C(O)=C1C2=O [Tigecycline, tigecycline] | 0.99 (0.62-1.5) | 0.85 (0.5-1.12) | 0.56 (0.31-1.06) | 0.46 (0.37-0.56) and 0.43 (0.31-0.56) | 0.91 (0.62-1.12) | 0.93 (0.62-1.12) | 1.2 (0.56-2.12) | 0.77 (0.5-1.06) | 0.83 (0.5-1.12) | 0.93 (0.62-1.12) | 0.74 (0.5-1.06) |  |  |  |  |  |  |  |  |  |
| CN[C@H](CC(C)C)C(=O)N[C@H]1C(=O)N[C@@H](CC(N)=O)C(=O)N[C@H]2C(=O)N[C@H]3C(=O)N[C@H](C(=O)N[C@H](C(=O)O)c4cc(O)cc(O)c4-c4cc3ccc4O)[C@H](O)c3ccc(c(Cl)c3)Oc3cc2cc(c3O[C@@H]2O[C@H](CO)[C@@H](O)[C@H](O)[C@H]2O[C@H]2C[C@](C)(N)[C@H](O)[C@H](C)O2)Oc2ccc(cc2Cl)[C@H]1O [Vancomycin] | 1.11 (1.0-1.25) | 1.19 (1.03-1.5) | 1.1 (1.0-1.25) | 1.1 (1.03-1.25) | 0.88 (0.53-0.125) | 0.3 (0.15-0.53) and 0.49 (0.24-1.06) | 0.27 (0.09-0.53) and 0.40 (0.15-1.06) | 1.19 (1.03-1.5) | 0.95 (0.56-1.25) | 1.19 (1.03-1.5) | 1.05 (0.75-1.25) |  |  |  |  |  |  |  |  |  |
| KKKKKLQLQLNLIKKKVQVSVVVVRRH (Reordered human peptide sequence) [Scrambled PEP35] |  |  |  |  |  |  |  |  |  |  |  | not synergistic (except at low level with ceftriaxone) |  |  |  |  |  |  |  |  |
| LKQKIKHVVKLKVVVKLRSQLVKRKQN (listed as Mus sp.) [PEP35] |  |  |  |  |  |  |  |  |  |  |  | not synergistic |  |  |  |  |  |  |  |  |
| piperacillin/tazobactam |  |  |  |  |  |  |  |  |  |  |  |  | 0.87 (0.56-1.12) and 0.63 (0.5-1.03) | 0.98 (0.62-1.25) and 0.63 (0.24-1.03) | 0.59 | 0.67 | >1* | >1* | 0.59 | 0.67 |
